This assay relates to T1, EstATII-TM (EstATII, A126V).
T1 construct: full ORF (945 bp) in pET-SUMO, His-tagged SUMO fusion, E. coli BL21(DE3), Ni column; 55 kDa; tag cleavage not mentioned; KC958722 is the wild-type nucleotide record; tested form carries A126V
Briefly: p-nitrophenol release at […] nm, nonlinear Michaelis-Menten fit. It counts as biochemical, uncultured bacterium. Particulars: 30 °C, pH 7.5; substrate range 0.01-1 mM; no added metal; Table 1 prints 0.03 (±0.01) μmol; unit doubtful (substrate range suggests mM).

Data on one molecule can be found in paper PMC9144027, “Evaluation of a Thermophilic, Psychrostable, and Heavy Metal-Resistant Red Sea Brine Pool Esterase” (Marine Drugs, 2022).

The term Km denotes the substrate concentration at which the rate is half of its maximum. For the molecule `CCCC(=O)Oc1ccc([N+](=O)[O-])cc1` [p-nitrophenyl butyrate], the Km came out at 0.0303 mM.
